The compounds below were run against T1, human CCR6 (Homo sapiens, UniProt P51684) (assay: Human CCR6-CRE reporter assay). Settings: 293FT cells transfected with human CCR6 and CRE-luciferase; Forskolin + CCL20, 5 h; relative Log IC50; read-out: CCR6-CRE reporter (converted).
T1 sequence (P51684 1-374): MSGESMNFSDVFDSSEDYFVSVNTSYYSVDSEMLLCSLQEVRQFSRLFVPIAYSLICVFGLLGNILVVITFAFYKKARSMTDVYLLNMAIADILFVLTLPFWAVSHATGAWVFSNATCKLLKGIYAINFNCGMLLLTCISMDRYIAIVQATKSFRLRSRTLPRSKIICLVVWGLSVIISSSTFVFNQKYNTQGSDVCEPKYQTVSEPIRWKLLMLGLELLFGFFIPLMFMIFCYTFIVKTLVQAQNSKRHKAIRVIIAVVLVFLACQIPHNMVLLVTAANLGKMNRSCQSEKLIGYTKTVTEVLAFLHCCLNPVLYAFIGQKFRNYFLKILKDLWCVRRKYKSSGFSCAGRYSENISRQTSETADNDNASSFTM
Type: cell-based
Design: The second construct contained the open reading frame of human CCR6 in the pUNO1 backbone; host or cells: 293FT cells (transient transfection with TransIT-293)
Experimental: 293FT cells were transfected with 2 constructs using TransIT-293 (Mirus). The first construct (pGL4.29, Promega) expressed the luciferase reporter gene luc2P in response to the binding of cAMP-induced CREB to the CREelement in its promoter. The second construct contained the open reading frame of human CCR6 in the pUNO1 backbone under the control of an enhanced CMV promoter(InVivoGen).48 h after transfection, cells were harvested and diluted to 750,000 cells/ml in culture medium (DMEM, 10% FBS, 1× pen/strep(Gibco 15140)). Compounds were 2.5-fold serially diluted in DMSO. Further dilutions were made in assay medium (DMEM, 10% FBS, 1× pen/strep, 6 μM Forskolin, 6 nM CCL20). 4 μl of the compound solution was added to a white MW384 plate, followed by […] of the cell suspension. Final DMSO concentration in the assay was 0.1%. The MW384 plate was placed in an incubator at 37° C., 5% CO2 for 5 h. Luciferase activity was determined by addition of 24 μl of a 2.5× diluted BriteLite luciferase solution(Perkin Elmer), followed by luminescence measurement using a VICTOR Plate reader (Perkin Elmer). […] The relative Log IC50 was determined with GraphPad Prism 9 using a four-parameter dose-response model.

Structure (SMILES)	IC50 [nM]
Cc1cc(-c2ccc(S(=O)(=O)N3CCC(Nc4cc(OC(F)(F)F)ccn4)CC3)cc2)cn2c(C(C)C)cnc12 [Example 69, N-(1-{4-[8-methyl-3-(propan-2-yl)imidazo[1,2-a]pyridin-6-yl]benzenesulfonyl}piperidin-4-yl)-4-(trifluoromethoxy)pyridin-2-amine]	1260
CC(C)c1nnc2ccc(-c3ccc(S(=O)(=O)N4CCC(Nc5cc(OC(F)(F)F)ccn5)CC4)cc3)cn12 [Example 70, N-(1-{4-[3-(propan-2-yl)-[1,2,4]triazolo[4,3-a]pyridin-6-yl]benzenesulfonyl}piperidin-4-yl)-4-(trifluoromethoxy)pyridin-2-amine]	3160
Cc1nnc2ccc(-c3ccc(S(=O)(=O)N4CCC(Nc5ccc(OC(F)(F)F)cn5)CC4)cc3)cn12 [Example 60, N-[1-(4-{3-methyl-[1,2,4]triazolo[4,3-a]pyridin-6-yl}benzenesulfonyl)piperidin-4-yl]-5-(trifluoromethoxy)pyridin-2-amine]	39.8
O=S(=O)(c1ccc(-c2ccccc2)cc1)N1CCC(Nc2ccc(OC(F)F)cc2)CC1 [Example 26, 1-{[1,1′-biphenyl]-4-sulfonyl}-N-[4-(difluoromethoxy)phenyl]piperidin-4-amine]	501
CC(C)c1cnc2ccc(-c3ccc(S(=O)(=O)N4CCC(Nc5ccc(SC(F)(F)F)cc5)CC4)cc3)cn12 [Example 31, 1-{4-[3-(propan-2-yl)imidazo[1,2-a]pyridin-6-yl]benzenesulfonyl}-N-{4-[(trifluoromethyl)sulfanyl]phenyl}piperidin-4-amine]	50.1

More lines, now with the values ahead:

IC50 [nM]	Structure (SMILES)
79.4	Cc1cnc2ccc(-c3ccc(S(=O)(=O)N4CCC(Nc5ccc(OC(F)(F)F)cc5)CC4)cc3)cn12 [Example 16, 1-(4-{3-methylimidazo[1,2-a]pyridin-6-yl}benzenesulfonyl)-N-[4-(trifluoromethoxy)phenyl]piperidin-4-amine]
631	O=S(=O)(c1ccc(-c2ccccc2)cc1)N1CCC(Nc2ccc(OC(F)(F)F)cc2)CC1 [Example 25, 1-{[1,1′-biphenyl]-4-sulfonyl}-N-[4-(trifluoromethoxy)phenyl]piperidin-4-amine]
398	N#Cc1ccc(-c2ccc(S(=O)(=O)[C@H]3CC[C@H](Nc4cccc(OC(F)(F)F)c4)CC3)cc2)cc1 [Example 40, 4′-{[trans-4-{[3-(trifluoromethoxy)phenyl]Amino}cyclohexyl]sulfonyl}-[1,1′-biphenyl]-4-carbonitrile]
79.4	O=c1[nH]nc2ccc(-c3ccc(S(=O)(=O)[C@H]4CC[C@H](Nc5ccc(SC(F)(F)F)cc5)CC4)cc3)cn12 [Example 50, 6-(4-{[trans-4-({4-[(trifluoromethyl)sulfanyl]phenyl}Amino)cyclohexyl]sulfonyl}phenyl)-2H,3H-[1,2,4]triazolo[4,3-a]pyridin-3-one]
63.1	NC(=O)c1cc(-c2ccc(S(=O)(=O)[C@H]3CC[C@H](Nc4ccc(SC(F)(F)F)cc4)CC3)cc2)ccn1 [Example 49, 4-(4-{[trans-4-({4-[(trifluoromethyl)sulfanyl]phenyl}Amino)cyclohexyl]sulfonyl}phenyl)pyridine-2-carboxamide]
79.4	O=S(=O)(c1ccc(-c2ccc3nccn3c2)cc1)[C@H]1CC[C@H](Nc2ccc(SC(F)(F)F)cc2)CC1 [Example 45, N-[trans-4-(4-{imidazo[1,2-a]pyridin-6-yl}benzenesulfonyl)cyclohexyl]-4-[(trifluoromethyl)sulfanyl]aniline]

Same assay, conditions: scaffold variant X = O, R1 = CF3; read-out: Activity in human CCR6-CRE reporter assay

IC50 [nM]	Structure (SMILES)
1100	O=S(=O)(c1ccc(-c2ccccc2)cc1)N1CCC(Nc2ccc(OC(F)(F)F)cc2)CC1 [Example 25, 1-{[1,1′-biphenyl]-4-sulfonyl}-N-[4-(trifluoromethoxy)phenyl]piperidin-4-amine]
